Assay results published in patent US20240417410A1, “TRICYCLIC COMPOUNDS FOR THE TREATMENT OF CANCER” (Hoffmann-La Roche Inc., priority 2023, published 2024).
pIC50: −log10 of the molar value.

Tests used:
[1] = test system: phosphorylation of ERK, KRAS G12V in SW620; assay: pERK inhibition assay; assay type: cell-based; settings: Homo sapiens, SW-620, 4 h, SW620 cells
Procedure, shortened: (§1)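 NCI-H358 (KRAS G12C), AGS (G12D) and SW620 (G12V) cells plated overnight, then treated with compound for 4 h in 0.5% DMSO. After fixing and methanol permeabilisation, phospho-ERK was detected by in-cell ELISA (HRP/TMB, OD450). IC50 from a 4-parameter sigmoidal fit.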

[2] = test system: phosphorylation of ERK, KRAS G12D in AGS cells; assay: pERK inhibition assay; assay type: cell-based; settings: Homo sapiens, AGS, 4 h
Procedure, shortened: as §1

[3] = test system: phosphorylation of ERK, KRAS G12C in NCI-H358 cells; assay: pERK inhibition assay; assay type: cell-based; settings: Homo sapiens, NCI-H358, 4 h
Procedure, shortened: as §1

[4] = test system: NCI-H358 cells (KRAS G12C); assay: Cell viability assay (Cell Counting Kit-8, 3-day); assay type: cell-based, human; settings: Homo sapiens, NCI-H358, 72 h, NCI-H358, 72 hrs incubation
Procedure, shortened: (§2)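 IC50 derived by 4-parameter sigmoidal fit of CCK-8 signal (OD450−OD650, 2 h development) after 72 h compound exposure in 0.5% DMSO. Seeding density was 5,000 cells/well for NCI-H358 and 2,000 cells/well for AGS and SW620, plated overnight before dosing.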

[5] = test system: AGS cells (KRAS G12D); assay: Cell viability assay (Cell Counting Kit-8, 3-day); assay type: cell-based, human; settings: Homo sapiens, 72 h, 72 hrs incubation
Procedure, shortened: as §2

[6] = test system: SW620 cells (KRAS G12V); assay: Cell viability assay (Cell Counting Kit-8, 3-day); assay type: cell-based, human; settings: Homo sapiens, SW-620; SW620, 72 hrs incubation
Procedure, shortened: as §2

[7] = target: KRAS G12C-BRAF complex (Homo sapiens (Human), UniProt P01116+P62937, G12C); assay: KRAS-BRAF with CYPA (500 nM) interaction assay (TR-FRET, Example 136); assay type: biochemical; settings: KRAS G12C-BRAF disruption
KRAS G12C-BRAF complex, sequence (P01116-2 other isoform, or with tags, fused parts or gaps G12C): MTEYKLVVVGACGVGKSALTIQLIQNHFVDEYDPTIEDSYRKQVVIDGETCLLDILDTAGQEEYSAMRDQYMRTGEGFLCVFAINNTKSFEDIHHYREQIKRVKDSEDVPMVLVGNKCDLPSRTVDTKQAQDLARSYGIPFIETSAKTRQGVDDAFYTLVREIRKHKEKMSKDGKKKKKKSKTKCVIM
KRAS G12C-BRAF complex, sequence (P62937 whole entry): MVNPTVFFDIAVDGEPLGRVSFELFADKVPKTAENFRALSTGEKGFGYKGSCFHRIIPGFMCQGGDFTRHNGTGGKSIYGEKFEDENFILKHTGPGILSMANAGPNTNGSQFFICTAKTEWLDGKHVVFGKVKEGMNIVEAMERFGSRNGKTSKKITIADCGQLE

Question: With `CO[C@@H](C)c1ncc(N2CCN(CC(F)(F)F)CC2)cc1-c1c2c3cc(cc4c3n1CCC4)-c1csc(n1)C[C@H](NC(=O)[C@H]1[C@H](C)[C@@H]1C)C(=O)N1CCC[C@H](N1)C(=O)OCC(C)(C)C2` (atropisomer, axis not shown; (M)) [Example 86, (1r,2R,3S)-N-[(7S,13S)-(20M)-20-[2-[(1S)-1-methoxyethyl]-5-[4-(2,2,2-trifluoroethyl)piperazin-1-yl]-3-pyridyl]-17,17-dimethyl-8,14-dioxo-15-oxa-4-thia-9,21,30,31-tetrazahexacyclo[23.3.1.1^2,5.1^9,13.0^19,27.0^21,26]hentriaconta-1 (28),2,5 (31),19,25 (29),26-hexaen-7-yl]-2,3-dimethyl-cyclopropanecarboxamide] as the molecule, how does the pIC50 [1] read?
Answer: 9.10

Question: And the pIC50 [2]?
Answer: 7.82

Question: What about the pIC50 [3] of the same molecule?
Answer: 8.74

Question: What about the pIC50 [4] of the same molecule?
Answer: 7.85

Question: What about the pIC50 [5] of the same molecule?
Answer: 7.34

Question: What about the pIC50 [6] of the same molecule?
Answer: 8.60

Question: What about the pIC50 [7] of the same molecule?
Answer: 7.75

Question: `CO[C@@H](C)c1ncc(N2CCN(C)CC2)cc1-c1c2c3cc(cc4c3n1CCC4)-c1csc(n1)C[C@H](NC(=O)[C@H]1C[C@@H]1c1cnccn1)C(=O)N1CCC[C@H](N1)C(=O)OCC(C)(C)C2` (atropisomer, axis not shown; (M)) [Example 99, (1S,2S)-N-[(7S,13S)-(20M)-20-[2-[(1S)-1-methoxyethyl]-5-(4-methylpiperazin-1-yl)-3-pyridyl]-17,17-dimethyl-8,14-dioxo-15-oxa-4-thia-9,21,30,31-tetrazahexacyclo[23.3.1.1^2,5.1^9,13.0^19,27.0^21,26]hentriaconta-1 (28),2,5 (31), 19,25 (29),26-hexaen-7-yl]-2-pyrazin-2-yl-cyclopropanecarboxamide] was tested. Which pIC50 [1] did it give?
Answer: 9.40

Question: And the pIC50 [2]?
Answer: 8.72

Question: What about the pIC50 [3] of the same molecule?
Answer: 9.30

Question: What about the pIC50 [4] of the same molecule?
Answer: 8.68

Question: And the pIC50 [5]?
Answer: 8.11

Question: What about the pIC50 [6] of the same molecule?
Answer: 9.40

Question: And the pIC50 [7]?
Answer: 7.90

Question: Which results are given for `CO[C@@H](C)c1ncc(N2CCN(C)CC2)cc1-c1c2c3cc(cc4c3n1CCC4)-c1csc(n1)C[C@H](NC(=O)[C@@H]1C[C@H]1c1cscn1)C(=O)N1CCC[C@H](N1)C(=O)OCC(C)(C)C2` (atropisomer, axis not shown; (M)) [Example 114, (1R,2R)-N-[(7S,13S)-(20M)-20-[2-[(1S)-1-methoxyethyl]-5-(4-methylpiperazin-1-yl)-3-pyridyl]-17,17-dimethyl-8,14-dioxo-15-oxa-4-thia-9,21,30,31-tetrazahexacyclo[23.3.1.1^2,5.1^9,13.0^19,27.0^21,26]hentriaconta-1 (28),2,5 (31), 19,25 (29),26-hexaen-7-yl]-2-thiazol-4-yl-cyclopropanecarboxamide]?
Answer: pIC50 [1]: 9.00; pIC50 [2]: 8.12; pIC50 [3]: 8.92; pIC50 [4]: 8.35; pIC50 [5]: 8.29; pIC50 [6]: 8.89; pIC50 [7]: 8.05

Question: How did the pIC50 [1] turn out when `CO[C@@H](C)c1ncc(N2CCN(C)CC2)cc1-c1c2c3cc(cc4c3n1CCO4)-c1csc(n1)C[C@H](NC(=O)[C@H]1C[C@@H]1C(F)F)C(=O)N1CCC[C@H](N1)C(=O)OCC(C)(C)C2` (atropisomer, axis not shown; (M)) [Example 34, (1S,2S)-2-(difluoromethyl)-N-[(7S,13S)-(20M)-20-[2-[(1S)-1-methoxyethyl]-5-(4-methylpiperazin-1-yl)-3-pyridyl]-17,17-dimethyl-8,14-dioxo-15,24-dioxa-4-thia-9,21,30,31-tetrazahexacyclo[23.3.1.1^2,5.1^9,13.0^19,27.0^21,26]hentriaconta-1 (28),2,5 (31), 19,25 (29),26-hexaen-7-yl]cyclopropanecarboxamide] was run?
Answer: > 9.22

Question: And the pIC50 [2]?
Answer: 8.34

Question: And the pIC50 [3]?
Answer: > 9.22

Question: What about the pIC50 [4] of the same molecule?
Answer: 8.33

Question: What about the pIC50 [5] of the same molecule?
Answer: 7.91

Question: What about the pIC50 [6] of the same molecule?
Answer: 8.96

Question: What about the pIC50 [7] of the same molecule?
Answer: 7.50

Question: With `CO[C@@H](C)c1ncc(N2CCOCC2)cc1-c1c2c3cc(cc4c3n1CC(C)(C)O4)-c1csc(n1)C[C@H](NC(=O)[C@H]1[C@H](C)[C@@H]1C)C(=O)N1CCC[C@H](N1)C(=O)OCC(C)(C)C2` (atropisomer, axis not shown; (M)) [Example 61, (1r,2R,3S)-N-[(7S,13S)-(20M)-20-[2-[(1S)-1-methoxyethyl]-5-morpholino-3-pyridyl]-17,17,23,23-tetramethyl-8,14-dioxo-15,24-dioxa-4-thia-9,21,30,31-tetrazahexacyclo[23.3.1.1^2,5.1^9,13.0^19,27.0^21,26]hentriaconta-1 (28),2,5 (31), 19,25 (29),26-hexaen-7-yl]-2,3-dimethyl-cyclopropanecarboxamide] as the molecule, how does the pIC50 [1] read?
Answer: 8.96

Question: And the pIC50 [2]?
Answer: 7.99

Question: And the pIC50 [3]?
Answer: 8.07

Question: What about the pIC50 [4] of the same molecule?
Answer: 7.65

Question: What about the pIC50 [5] of the same molecule?
Answer: 7.48

Question: And the pIC50 [6]?
Answer: 8.52

Question: What about the pIC50 [7] of the same molecule?
Answer: 7.29

Question: How did the pIC50 [1] turn out when `CO[C@@H](C)c1ncc(N2CCOCC2)cc1-c1c2c3cc(cc4c3n1CCC4)-c1csc(n1)C[C@H](NC(=O)[C@H]1C[C@@H]1c1cccnc1)C(=O)N1CCC[C@H](N1)C(=O)OCC(C)(C)C2` (atropisomer, axis not shown; (M)) [Example 89, (1S,2S)-N-[(7S,13S)-(20M)-20-[2-[(1S)-1-methoxyethyl]-5-morpholino-3-pyridyl]-17,17-dimethyl-8,14-dioxo-15-oxa-4-thia-9,21,30,31-tetrazahexacyclo[23.3.1.1^2,5.1^9,13.0^19,27.0^21,26]hentriaconta-1 (28),2,5 (31), 19,25 (29),26-hexaen-7-yl]-2-(3-pyridyl)cyclopropanecarboxamide] was run?
Answer: 9.40

Question: What about the pIC50 [2] of the same molecule?
Answer: 8.32

Question: What about the pIC50 [3] of the same molecule?
Answer: 9.22

Question: And the pIC50 [4]?
Answer: 8.82

Question: And the pIC50 [5]?
Answer: 8.22

Question: And the pIC50 [6]?
Answer: 9.52

Question: And the pIC50 [7]?
Answer: 8.22

Question: How did the pIC50 [1] turn out when `CO[C@@H](C)c1ncc(N2CCOCC2)cc1-c1c2c3cc(cc4c3n1CCO4)-c1csc(n1)C[C@H](NC(=O)[C@H]1C[C@@H]1C)C(=O)N1CCC[C@H](N1)C(=O)OCC(C)(C)C2` (atropisomer, axis not shown; (M)) [Example 8, (1S,2S)-N-[(7S,13S)-(20M)-20-[2-[(1S)-1-methoxyethyl]-5-morpholino-3-pyridyl]-17,17-dimethyl-8,14-dioxo-15,24-dioxa-4-thia-9,21,30,31-tetrazahexacyclo[23.3.1.1^2,5.1^9,13.0^19,27.0^21,26]hentriaconta-1 (28),2,5 (31), 19,25 (29),26-hexaen-7-yl]-2-methyl-cyclopropanecarboxamide] was run?
Answer: 8.92

Question: And the pIC50 [2]?
Answer: 8.15

Question: What about the pIC50 [3] of the same molecule?
Answer: 8.59

Question: What about the pIC50 [4] of the same molecule?
Answer: 8.23

Question: And the pIC50 [5]?
Answer: 7.73

Question: And the pIC50 [6]?
Answer: 8.96

Question: What about the pIC50 [7] of the same molecule?
Answer: 7.63

Question: Which results are given for `CO[C@@H](C)c1ncc(N2CCN(CC(F)(F)F)CC2)cc1-c1c2c3cc(cc4c3n1CCO4)-c1csc(n1)C[C@H](NC(=O)[C@H]1C[C@@H]1C(F)F)C(=O)N1CCC[C@H](N1)C(=O)OCC(C)(C)C2` (atropisomer, axis not shown; (M)) [Example 11, (1S,2S)-2-(difluoromethyl)-N-[(7S,13S)-(20M)-20-[2-[(1S)-1-methoxyethyl]-5-[4-(2,2,2-trifluoroethyl)piperazin-1-yl]-3-pyridyl]-17,17-dimethyl-8,14-dioxo-15,24-dioxa-4-thia-9,21,30,31-tetrazahexacyclo[23.3.1.1^2,5.1^9,13.0^19,27.0^21,26]hentriaconta-1 (28),2,5 (31),19,25 (29),26-hexaen-7-yl]cyclopropanecarboxamide]?
Answer: pIC50 [1]: 9.10; pIC50 [2]: 8.54; pIC50 [3]: 8.29; pIC50 [4]: 7.73; pIC50 [5]: 7.42; pIC50 [6]: 8.62; pIC50 [7]: 7.91

Question: `CO[C@@H](C)c1ncc(N2CCN(C)CC2)cc1-c1c2c3cc(cc4c3n1CCO4)-c1csc(n1)C[C@H](NC(=O)[C@H]1[C@@H]3COC[C@@H]31)C(=O)N1CCC[C@H](N1)C(=O)OCC(C)(C)C2` (atropisomer, axis not shown; (M)) [Example 35, (1S,5R,6r)-N-[(7S,13S)-(20M)-20-[2-[(1S)-1-methoxyethyl]-5-(4-methylpiperazin-1-yl)-3-pyridyl]-17,17-dimethyl-8,14-dioxo-15,24-dioxa-4-thia-9,21,30,31-tetrazahexacyclo[23.3.1.1^2,5.1^9,13.0^19,27.0^21,26]hentriaconta-1 (28),2,5 (31), 19,25 (29),26-hexaen-7-yl]-3-oxabicyclo[3.1.0]hexane-6-carboxamide] was tested. Which pIC50 [1] did it give?
Answer: > 9.22

Question: What about the pIC50 [2] of the same molecule?
Answer: 8.33

Question: And the pIC50 [3]?
Answer: 9.00

Question: And the pIC50 [4]?
Answer: 8.37

Question: And the pIC50 [5]?
Answer: 7.89

Question: What about the pIC50 [6] of the same molecule?
Answer: 9.00

Question: What about the pIC50 [7] of the same molecule?
Answer: 7.84

Question: How did the pIC50 [1] turn out when `CO[C@@H](C)c1ncc(N2CCN(C)CC2)cc1-c1c2c3cc(cc4c3n1CCO4)-c1csc(n1)C[C@H](NC(=O)C1CC1c1ccc(F)cc1)C(=O)N1CCC[C@H](N1)C(=O)OCC(C)(C)C2` (stereo partly drawn) [Example 59, 2-(4-fluorophenyl)-N-[(7S,13S)-(20M)-20-[2-[(1S)-1-methoxyethyl]-5-(4-methylpiperazin-1-yl)-3-pyridyl]-17,17-dimethyl-8,14-dioxo-15,24-dioxa-4-thia-9,21,30,31-tetrazahexacyclo[23.3.1.1^2,5.1^9,13.0^19,27.0^21,26]hentriaconta-1 (29),2,5 (31),19,25,27-hexaen-7-yl]cyclopropanecarboxamide] was run?
Answer: 8.52

Question: What about the pIC50 [2] of the same molecule?
Answer: 7.67

Question: What about the pIC50 [3] of the same molecule?
Answer: 8.06

Question: And the pIC50 [4]?
Answer: 7.47

Question: And the pIC50 [5]?
Answer: 7.06

Question: And the pIC50 [6]?
Answer: 8.13

Question: And the pIC50 [7]?
Answer: 7.78
